Laboratory results published in ChEMBL document CHEMBL1926541, “Molecular docking of γ-sitosterol with some targets related to diabetes” (2012).

Legend:
Type in all cases: functional
Rattus norvegicus [1] = test: Antidiabetic activity in STZ-induced diabetic rat model assessed as increase in plasma insulin level at 20 mg/kg, po qd for 21 days
Rattus norvegicus [2] = test: Antidiabetic activity in STZ-induced diabetic rat model assessed as increase in muscle glycogen at 20 mg/kg, po qd for 21 days
Rattus norvegicus [3] = test: Antidiabetic activity in STZ-induced diabetic rat model assessed as increase in liver glycogen at 20 mg/kg, po qd for 21 days
Rattus norvegicus [4] = test: Antidiabetic activity in STZ-induced diabetic rat model assessed as increase in glucose 6 phosphate dehydrogenase at 20 mg/kg, po qd for 21 days
Rattus norvegicus [5] = test: Antidiabetic activity in STZ-induced diabetic rat model assessed as reduction in glycosylated haemoglobin at 20 mg/kg, po qd for 21 days; parameters: scale not given: the % may be the effect or the level left
Rattus norvegicus [6] = test: Antidiabetic activity in STZ-induced diabetic rat model assessed as reduction in glucose-6-phosphatase at 20 mg/kg, po qd for 21 days; parameters: scale not given: the % may be the effect or the level left

CC[C@H](CC[C@@H](C)[C@H]1CC[C@H]2[C@@H]3CC=C4C[C@@H](O)CC[C@]4(C)[C@H]3CC[C@]12C)C(C)C [BETA-SITOSTEROL] showed an Activity (Rattus norvegicus [1]) of 69.05%, an Activity (Rattus norvegicus [2]) of 76.86% and an Activity (Rattus norvegicus [3]) of 77.15%. The Activity (Rattus norvegicus [4]) was 38.52%, the Activity (Rattus norvegicus [5]) was 66.96% and the Activity (Rattus norvegicus [6]) was 40.07%.
